ChEMBL document CHEMBL4825757, “Optimization of 4,6-Disubstituted Pyrido[3,2-d]pyrimidines as Dual MNK/PIM Inhibitors to Inhibit Leukemia Cell Growth” (J Med Chem, 2021)
Calls of active or inactive are those of the source. No cut-off for these calls is given here.

Columns and labels:
[1] = Toxicity in NOD/SCID mouse xenografted with human MOLM-13 cells assessed as abnormal changes in heart at 5 to 10 mg/kg, ip daily for 2 weeks by hematoxylin-eosin staining based histological analysis; assay type: organism-based; conditions: in vivo, 336 h, dose 5-10 mg/kg
[2] = Metabolic stability in human liver microsomes assessed as half life preincubated for 10 mins followed by NADPH addition and further incubated upto 60 mins by LC-MS/MS analysis; assay type: ADME, Microsome; conditions: time <=70 min
[3] = target: MAP kinase-interacting serine/threonine-protein kinase 2 (Homo sapiens, UniProt Q9HBH9); experiment: Inhibition of wild type human partial length MKN2 (G63 to S388 residues) expressed in mammalian expression system by HTRF method
[4] = target: T1, MAP kinase-interacting serine/threonine-protein kinase 1/2 (Homo sapiens) (UniProt Q9HBH9+Q9BUB5); experiment: Inhibition of MNK1/MNK2 in human MOLM-13 cells assessed as reduction in eIF4E phosphorylation at 1 to 2 uM incubated for 12 hrs by western blot analysis; assay type: cell-based; conditions: dose 1-2 µM
[5] = Tmax in Sprague Dawley rat at 10 mg/kg, po measured after 24 hrs; assay type: ADME, organism-based; conditions: in vivo
[6] = target: T2, Serine/threonine-protein kinase PIM (Homo sapiens) (UniProt P11309+Q9P1W9+Q86V86); experiment: Inhibition of PIM in human MOLM-13 cells assessed as reduction in phosphorylated 4EBP1 at 1 to 2 uM incubated for 12 hrs by western blot analysis; assay type: cell-based; conditions: dose 1-2 µM
MOLM-13 [7] = experiment: Downregulation of cyclin-D1 levels in human MOLM-13 cells at 1 to 2 uM incubated for 12 hrs by western blot analysis; assay type: functional, cell-based; conditions: dose 1-2 µM
K562 [8] = experiment: Antiproliferative activity against human K562 cells assessed as reduction of cell viability incubated for 72 hrs by trypan blue staining based cell counting analysis; assay type: functional
[9] = target: T3, Serine/threonine-protein kinase B-raf (Homo sapiens, UniProt P15056); experiment: Inhibition of wild-type human partial length BRAF (S429 to E741 residues) expressed in mammalian expression system at 1 uM by Kinomescan method relative to control
MOLM-13 [10] = experiment: Antitumor activity against human MOLM-13 cells xenografted in NOD/SCID mouse assessed as decrease in cyclin-D1 levels at 10 mg/kg, ip daily for 2 weeks by western blot analysis; assay type: functional, organism-based
K562 [11] = experiment: Downregulation of c-myc levels in human K562 cells at 1 to 2 uM incubated for 24 hrs by western blot analysis; assay type: functional, cell-based; conditions: dose 1-2 µM
MOLM-13 [12] = experiment: Induction of apoptosis in human MOLM-13 cells assessed as late apoptotic cells at 2 uM incubated for 12 hrs by annexin-V and propidium iodide staining based flow cytometry analysis (reference value: 3.03%); assay type: functional
[13] = Intrinsic clearance in human liver microsomes preincubated for 10 mins followed by NADPH addition and further incubated upto 60 mins by LC-MS/MS analysis; assay type: ADME, Microsome; conditions: time <=70 min, read-out: CLH
[14] = target: T3, Serine/threonine-protein kinase B-raf; experiment: Inhibition of recombinant human B-Raf (416 to end residues) using myelin as substrate incubated for 40 mins in presence of [gamma-33P]-ATP by radiometric scintillation counting analysis
[15] = AUC (0 to t) in Sprague Dawley rat at 10 mg/kg, ip measured after 24 hrs; assay type: ADME, organism-based; design: route intraperitoneal, time 24 hrs, dose 10 mg/kg; conditions: in vivo
MOLM-13 [16] = experiment: Induction of apoptosis in human MOLM-13 cells assessed as live cells at 2 uM incubated for 12 hrs by annexin-V and propidium iodide staining based flow cytometry analysis (reference value: 91.49%); assay type: functional
[17] = Cmax in Sprague Dawley rat at 10 mg/kg, ip measured after 24 hrs; assay type: ADME, organism-based; design: route intraperitoneal, time 24 hrs, dose 10 mg/kg; conditions: in vivo
[18] = Half life in Sprague Dawley rat at 10 mg/kg, ip measured after 24 hrs; assay type: ADME, organism-based; conditions: in vivo
[19] = Toxicity in NOD/SCID mouse xenografted with human MOLM-13 cells assessed as abnormal changes in kidney at 5 to 10 mg/kg, ip daily for 2 weeks by hematoxylin-eosin staining based histological analysis; assay type: organism-based; conditions: in vivo, 336 h, dose 5-10 mg/kg
[20] = Half life in Sprague Dawley rat at 2 mg/kg, iv measured after 24 hrs; assay type: ADME, organism-based; conditions: in vivo
MOLM-13 [21] = experiment: Downregulation of c-myc levels in human MOLM-13 cells at 1 to 2 uM incubated for 12 hrs by western blot analysis; assay type: functional, cell-based; conditions: dose 1-2 µM
[22] = target: T1, MAP kinase-interacting serine/threonine-protein kinase 1/2 (Homo sapiens); experiment: Inhibition of MNK1/MNK2 in human K562 cells assessed as reduction in eIF4E phosphorylation at 1 to 2 uM incubated for 24 hrs by western blot analysis; assay type: cell-based; conditions: dose 1-2 µM
MOLM-13 [23] = experiment: Antitumor activity against human MOLM-13 cells xenografted in NOD/SCID mouse assessed as tumor growth inhibition at 10 mg/kg, ip daily for 2 weeks; assay type: functional; conditions: MOLM-13, ip, 336 h, read-out: TGI
MOLM-13 [24] = experiment: Induction of apoptosis in human MOLM-13 cells assessed as necrotic cells at 2 uM incubated for 12 hrs by annexin-V and propidium iodide staining based flow cytometry analysis (reference value: 0.06%); assay type: functional
[25] = target: Serine/threonine-protein kinase pim-3 (Homo sapiens, UniProt Q86V86); experiment: Inhibition of wild-type human partial length PIM3 (G16 to A317 residues) expressed in bacterial expression system at 1 uM by Kinomescan method relative to control
MOLM-13 [26] = experiment: Induction of apoptosis in human MOLM-13 cells assessed as late apoptotic cells at 1 uM incubated for 12 hrs by annexin-V and propidium iodide staining based flow cytometry analysis (reference value: 3.03%); assay type: functional
[27] = AUC (0 to t) in Sprague Dawley rat at 10 mg/kg, po measured after 24 hrs; assay type: ADME, organism-based; design: route oral, dose 10 mg/kg, time 24 hrs; conditions: in vivo
[28] = Oral bioavailability in Sprague Dawley rat at 10 mg/kg measured after 24 hrs; assay type: ADME, organism-based; conditions: in vivo
[29] = target: Epidermal growth factor receptor (Homo sapiens, UniProt P00533); experiment: Inhibition of recombinant human EGFR (696 to end residues) using poly(Glu, Tyr) 4:1 as substrate after 40 mins in presence of [gamma-33ATP] by radiometric scintillation counting analysis
[30] = Bioavailability in Sprague Dawley rat at 10 mg/kg, ip measured after 24 hrs; assay type: ADME, organism-based; conditions: in vivo
MOLM-13 [31] = experiment: Induction of cell cycle arrest in human MOLM-13 cells assessed as sub-G1 phase at 1 uM incubated for 12 hr by propidium iodide based flow cytometry analysis (Rvb= 4.78%); assay type: functional
[32] = Tmax in Sprague Dawley rat at 2 mg/kg, iv measured after 24 hrs; assay type: ADME, organism-based; conditions: in vivo
MOLM-13 [33] = experiment: Induction of cell cycle arrest in human MOLM-13 cells assessed as G1 phase at 1 uM incubated for 12 hr by propidium iodide based flow cytometry analysis (Rvb= 51.29%); assay type: functional
MOLM-13 [34] = experiment: Induction of apoptosis in human MOLM-13 cells assessed as early apoptotic cells at 1 uM incubated for 12 hrs by annexin-V and propidium iodide staining based flow cytometry analysis (reference value: 5.40%); assay type: functional
[35] = target: Serine/threonine-protein kinase pim-1 (Homo sapiens, UniProt P11309); experiment: Inhibition of wild-type human partial length PIM1 (A15 to K313 residues) expressed in bacterial expression system at 1 uM by Kinomescan method relative to control
[36] = target: T2, Serine/threonine-protein kinase PIM (Homo sapiens); experiment: Inhibition of PIM in human K562 cells assessed as reduction in phosphorylated 4EBP1 at 1 to 2 uM incubated for 24 hrs by western blot analysis; assay type: cell-based; conditions: dose 1-2 µM
[37] = AUC (0 to t) in Sprague Dawley rat at 2 mg/kg, iv measured after 24 hrs; assay type: ADME, organism-based; design: route intravenous, time 24 hrs, dose 2 mg/kg; conditions: in vivo

For `CC(C)Oc1cc(F)ccc1Nc1ncnc2ccc(-c3ccc(C(=O)N4CCNCC4)cc3)nc12`, the Activity [1] was “Non-Toxic”, the half-life [2] was 3.4 h and the IC50 [3] was 7 nM. For the same molecule, the inhibition [4] was “Active”, the Tmax [5] was 8 h and the inhibition [6] was “Active”. The Activity (MOLM-13 [7]) was “Active”, the GI50 (K562 [8]) was 2190 nM and the inhibition [9] was 87%. The Activity (MOLM-13 [10]) was “Active”, the Activity (K562 [11]) was “Active” and the Activity (MOLM-13 [12]) was 8.2%. The CLint scaled [13] was 8.53 mL/min/kg, the IC50 [14] was 2220 nM and the AUC(0-t) at 24 h [15] was 1660 ng·h/mL. The Activity (MOLM-13 [16]) was 61.5%, the Cmax [17] was 405 ng/mL and the half-life [18] was 4.4 h. For the same molecule, the Activity [19] was “Non-Toxic”, the half-life [20] was 6.71 h and the Activity (MOLM-13 [21]) was “Active”. For the same molecule, the inhibition [22] was “Dose-Dependent Effect”, the inhibition in vivo at 10 mg/kg (MOLM-13 [23]) was 57.6% and the Activity (MOLM-13 [24]) was 0.73%. The inhibition [25] was 90%, the Activity (MOLM-13 [26]) was 2.97% and the AUC(0-t) at 24 h [27] was 2850 ng·h/mL. It also gave a bioavailability [28] of 35.5%, an IC50 [29] of 1970 nM and a bioavailability [30] of 20.6%. The Activity (MOLM-13 [31]) was 11.81%, the Tmax [32] was 4.98 min and the Activity (MOLM-13 [33]) was 61.13%. The Activity (MOLM-13 [34]) was 6.83%, the inhibition [35] was 96% and the inhibition [36] was “Dose-Dependent Effect”. It also gave an AUC(0-t) at 24 h [37] of 1610 ng·h/mL.
